This is an account of results in PubChem BioAssay (NCI).

Among the test systems are UACC-257 melanoma; NCI-H23 lung; KM12 colon; T-47D breast; SW-620 colon; MOLT-4 leukemia; SNB-19 CNS; SNB-75 CNS; ACHN renal; SK-MEL-5 melanoma.
Common to all, as to test: growth of human tumour cells (NCI), 48 h

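Step 1: Grow cells in 96-well plates. Step 2: Expose to compound for 48 hours at 5 concentrations. Step 3: Interpolate endpoints linearly; if unreached, use highest concentration. GI50 marks 50% less growth. At the TGI there is no net growth.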 Where only a bound is given, the exact number is not on record here.

As to `O=C(CNCc1ccccc1)Oc1c(Cl)c(Cl)c(Cl)c(Cl)c1Cl`, the TGI is 54.8 µM in the assay with UACC-257 melanoma; > 100 µM in the assay on NCI-H23 lung; 51.1 µM in the assay on KM12 colon; 67.9 µM in the assay with T-47D breast; 84.5 µM with SW-620 colon; 50.6 µM with MOLT-4 leukemia. The TGI in the assay on SNB-19 CNS was > 100 µM; with SNB-75 CNS it was > 100 µM; with ACHN renal it was 51.1 µM.
Take `O=C(OCc1ccccc1)C(Cc1ccccc1)N(Cc1ccccc1)Cc1ccccc1` (centres undefined): the TGI in the assay on UACC-257 melanoma, in the assay with NCI-H23 lung, with KM12 colon, in the assay on SW-620 colon, in the assay on MOLT-4 leukemia and with SNB-19 CNS was > 100 µM each time. The TGI in the assay with SNB-75 CNS, with ACHN renal and with SK-MEL-5 melanoma was > 100 µM throughout.
As to `Cc1cn2c(C)csc2c1P(=O)(OC(C)C)OC(C)C`, the TGI in the assay on UACC-257 melanoma, in the assay with NCI-H23 lung, in the assay on KM12 colon, in the assay on SW-620 colon, in the assay on MOLT-4 leukemia and in the assay with SNB-19 CNS was > 100 µM in each case. Also, the TGI in the assay with SNB-75 CNS, in the assay on ACHN renal and with SK-MEL-5 melanoma was > 100 µM in each case.
For `Cc1cc2c(nn1)-c1ccccc1C2=O`, the TGI with NCI-H23 lung, with KM12 colon, in the assay with T-47D breast, in the assay on SW-620 colon, with MOLT-4 leukemia and with SNB-19 CNS was > 10 µM throughout. Moreover, the TGI with ACHN renal and in the assay with SK-MEL-5 melanoma was > 10 µM each time.
As for `O=C([CH-]C(=O)c1ccccc1)c1ccccc1.O=C([CH-]C(=O)c1ccccc1)c1ccccc1.[O]=[U+2]=[O]`, the GI50 in the assay with UACC-257 melanoma was 7.84 µM; in the assay with NCI-H23 lung it was 4.01 µM; in the assay on SW-620 colon, 3.15 µM; in the assay with MOLT-4 leukemia it was 2.57 µM; in the assay on SNB-19 CNS, 3.36 µM; in the assay on ACHN renal it was 3.39 µM. Moreover, in the assay with SK-MEL-5 melanoma, the GI50 is 2.77 µM. Also, the TGI in the assay on UACC-257 melanoma was 35.5 µM; in the assay with NCI-H23 lung, > 100 µM; in the assay on SW-620 colon it was > 100 µM; in the assay on MOLT-4 leukemia, 27.3 µM; with SNB-19 CNS it was 18.9 µM; in the assay on ACHN renal it was 11.9 µM. Besides, the TGI with SK-MEL-5 melanoma was found to be 9.12 µM.
With `Cc1ccc(-c2c(C#N)c(-c3ccc([N+](=O)[O-])cc3)c(C#N)c(=O)n2NS(=O)(=O)c2ccccc2)cc1`, the TGI in the assay on UACC-257 melanoma was > 100 µM; in the assay with KM12 colon, > 100 µM; in the assay with SW-620 colon it was > 100 µM; in the assay on MOLT-4 leukemia, 52.8 µM; in the assay on SNB-19 CNS, > 100 µM; in the assay on SNB-75 CNS, > 100 µM. Also, the TGI in the assay with ACHN renal is > 100 µM; in the assay with SK-MEL-5 melanoma, 26.9 µM.
As for `Cc1ccc(S(=O)(=O)NC(=O)NNc2ccc(F)cc2)cc1`, the TGI in the assay with UACC-257 melanoma, with KM12 colon, with T-47D breast, with SW-620 colon, in the assay on MOLT-4 leukemia and with SNB-19 CNS was > 100 µM throughout. Besides, the values for the TGI in the assay with SNB-75 CNS, in the assay on ACHN renal and with SK-MEL-5 melanoma were > 75.8 µM, > 100 µM and > 100 µM, respectively.
Regarding `CC1(C)[C@@H](Cn2cnc3c(Cl)nc(N)nc32)CC[C@@]1(C)CO`, the TGI in the assay with UACC-257 melanoma was 79.2 µM; in the assay with KM12 colon, > 100 µM; with T-47D breast, > 100 µM; with SW-620 colon, > 100 µM; in the assay with SNB-19 CNS, > 100 µM; in the assay with SNB-75 CNS, > 100 µM. For the same compound, the TGI in the assay with ACHN renal was > 100 µM; with SK-MEL-5 melanoma, 47.3 µM.
For `CN1COCc2cc3cc4c(cc3nc21)OCCO4`, the TGI in the assay with UACC-257 melanoma, in the assay on KM12 colon, in the assay with SW-620 colon, in the assay with MOLT-4 leukemia, in the assay with SNB-19 CNS and in the assay with SNB-75 CNS was > 100 µM each time. For the same compound, the TGI in the assay with ACHN renal and in the assay on SK-MEL-5 melanoma was > 100 µM in each case.
Turning to `CCCCN(CCCC)C(=C(C(Cl)=C(Cl)Cl)[N+](=O)[O-])N(CCCC)CCCC`, the TGI with UACC-257 melanoma, in the assay with NCI-H23 lung, in the assay on KM12 colon, in the assay on T-47D breast, in the assay on SNB-19 CNS and in the assay on SNB-75 CNS was > 100 µM throughout. For the same compound, the TGI in the assay with ACHN renal and in the assay with SK-MEL-5 melanoma was > 100 µM in each case.
In the case of `COC(=O)C1=C(C)NC(C)=C([N+](=O)[O-])C1c1cccc(N=O)c1` (centres undefined), the TGI with UACC-257 melanoma was 25.1 µM; in the assay with NCI-H23 lung it was 33.5 µM; in the assay on KM12 colon it was 26.4 µM; in the assay on T-47D breast, 37.3 µM; with SW-620 colon, 13.3 µM; in the assay with MOLT-4 leukemia it was > 100 µM. In addition, the values for the TGI with SNB-19 CNS, in the assay with ACHN renal and in the assay with SK-MEL-5 melanoma were > 100 µM, 24.8 µM and 29.6 µM, respectively.
On to `O=c1n(Cc2ccccc2)c(=O)n2c(=O)n(Cc3ccccc3)c(=O)n12`, for which the TGI with UACC-257 melanoma, in the assay on NCI-H23 lung, in the assay on KM12 colon, with T-47D breast, in the assay on SW-620 colon and with SNB-19 CNS was > 100 µM throughout. For the same compound, the TGI with SNB-75 CNS, with ACHN renal and in the assay on SK-MEL-5 melanoma was > 100 µM in each case.
For `c1csc(-c2c3ccc(=[N+]4CCCCC4)cc-3oc3cc(N4CCCCC4)ccc23)c1`, the GI50 in the assay with UACC-257 melanoma is 0.0982 µM; in the assay with MOLT-4 leukemia, 0.0515 µM; in the assay on SNB-75 CNS, 0.123 µM; in the assay on SK-MEL-5 melanoma it was 0.141 µM. The TGI with UACC-257 melanoma was determined as 0.321 µM; in the assay on MOLT-4 leukemia it was 0.473 µM; in the assay on SNB-75 CNS it was 0.508 µM; in the assay with SK-MEL-5 melanoma it was 0.276 µM.
For the compound `CC(C)CCn1nc(N)c2nc3ccccc3nc21`, the TGI in the assay on UACC-257 melanoma is > 100 µM; in the assay on NCI-H23 lung, > 100 µM; with KM12 colon it was > 100 µM; in the assay with SW-620 colon, > 100 µM; in the assay with MOLT-4 leukemia, 94.9 µM; in the assay with SNB-19 CNS it was > 100 µM. The TGI in the assay on SNB-75 CNS and in the assay on ACHN renal was > 100 µM in each case.
